In test [1] the target is T1, NR4A1 (Homo sapiens, UniProt P22736).
T1 construct: NR-V04 effectively promoted the degradation of NR4A1 in two human melanoma cell lines within 16 h; endogenous in cells; host or cells: CHL-1, A375, WM164, M229 human melanoma cells
Put plainly: NR4A1 degradation in CHL-1 human melanoma cells (immunoblotting). It is filed as cell-based. The note with it: CHL-1 cells, 16 h. How it is done:
Human melanoma cell lines: A375 and CHL-1 (gifts from Dr. D. Zhou, the University of Texas Health Science Center, San Antonio, TX, USA) were cultured in Dulbecco’s Modified Eagles’ Medium (DMEM, D5796; Sigma-Aldrich), WM164 and M229 (gifts from Dr. K.S.M. Smalley’s lab) were cultured in RPMI-1640 (R8758; Sigma-Aldrich). Mouse melanoma cell lines: B16F10 (CRL-6475, ATCC) was cultured in DMEM, SW1 and SM1 (gift from Dr. K.S.M. Smalley, Moffitt Cancer Center, Tampa, FL, USA) were cultured in RPMI. Human epithelial kidney cell lines: HEK293T (293T, CRL-3216; ATCC) and Vhl-KO-293T (gift from Dr. D. Zhou, the University of Texas Health Science Center, San Antonio, TX, USA) were cultured in DMEM. Mouse colon cancer cell lines: MC38 (ENH204-FP; Kerafast Inc.) was cultured in DMEM supplemented with 1 mM glutamine, […] non-essential amino acids (11140050; Thermo Fisher Scientific), 1 mM sodium pyruvate (11360070; Thermo Fisher Scientific), and 10 mM HEPES (15630080; Thermo Fisher Scientific). All cell culturing media were supplemented with 10% fetal bovine serum (FBS, F2442; Sigma-Aldrich), 100 U/ml penicillin, and 100 µg/ml streptomycin (P4333; Sigma-Aldrich).
Samples were lysed using radioimmunoprecipitation assay buffer (RIPA) lysis buffer (150 mM NaCl, 5 mM EDTA, 50 mM Tris pH 8.0, 0.5% sodium deoxycholate, 1% NP-40, 0.1% SDS) supplemented with 1 mM dithiothreitol and protease inhibitors. The lysates were separated by SDS-PAGE and analyzed using standard western blotting procedures ([Khan et al., 2019]). Antibodies: human NR4A1 (ab153914, 1:1,000; Abcam), mouse NR4A1 (14-5965-82, 1:1,000; Invitrogen), NR4A2 (AV38753, 1:1,000; Sigma-Aldrich), NR4A3 (TA804893, 1: 1,000; Thermo Fisher Scientific), VHL (68547, 1:1,000; Cell Signaling), β-actin (13E5, 1:5,000; Cell Signaling), β-tubulin (9F3, 1: 5,000; Cell Signaling), and GAPDH (D16H11, 1: 5,000; Cell Signaling) were employed for protein detection.

A further test deals with NR4A1 mRNA. Briefly: NR4A1 mRNA by qPCR in CHL-1 cells. The test is classed as cell-based, human. To be noted: 500 nM, ACTB as control. How it is done:
Total RNA was extracted from cells using RNeasy Kits (74004; QIAGEN) following the manufacturer’s instructions. cDNA synthesis was performed using SuperScript III Reverse Transcriptase (18080044; Thermo Fisher Scientific) with 100 ng RNA as the template. Amplification of cDNA was carried out using 2× PowerUP SYBR Green Master Mix (A25778; Thermo Fisher Scientific). Each reaction was conducted in triplicates and results were normalized to the expression of a housekeeping gene. Primer (Eurofins): human β-actin (forward sequence: 5′-CACCATTGGCAATGAGCGGTTC-3′; reverse sequence: 5′-AGGTCTTTGCGGATGTCCACGT-3′) and human NR4A1 (forward sequence: 5′-GGACAACGCTTCATGCCAGCAT-3′; reverse sequence: 5′-CCTTGTTAGCCAGGCAGATGTAC-3′).
A general note: In qPCR the cycle at which signal appears reflects the starting amount.

The next test has as its system MC38 tumors. Put plainly: MC38 colon cancer syngeneic tumor model. The test is classed as in vivo, mouse. The note with it: MC38 in WT mice, 1.8 mg/kg NR-V04 or 0.75 mg/kg celastrol i.p. twice a week from day 7. From the text:
(§1) 7–9-wk-old C57BL/6J, B6.129S2-Ighm^tm1Cgn/J (002288), B6.129S2-Nr4a1^tm1Jmi/J (NR4A1^−/−, 006187), and NOD-SCID interleukin-2 receptor gamma null (NSG) mice were purchased from Jackson Laboratories. For all studies involving NR-V04 and celastrol, the compounds were formulated in 50% phosal PG, 45% miglyol 810N, and 5% polysorbate 80 and administered via i.p. injection.
(§2) For syngeneic tumor models, 5 × 10^5 cells MC38, Yumm1.7, and Yummer1.7, 1 × 10^5 cells of B16F10 were resuspended in PBS and implanted into 7–9-wk-old mice subcutaneously. For the tumor inhibition experiment, mice were treated with 1.8 mg/kg NR-V04 or 0.75 mg/kg celastrol by i.p. injection twice weekly. For the immune profile experiment, once tumors reached 0.5 cm in diameter, mice were treated with 1.8 mg/kg NR-V04 by i.p. injection twice weekly. For the toxicity experiment, male and female non-tumor-bearing mice were treated with 2 mg/kg NR-V04 for two doses in the first week and 5 mg/kg for another two doses in the second week. Blood samples were taken from the submandibular (facial) vein before each treatment and 42 days later for hematological analysis, and body weight was measured twice per week up to day 42. Mice were euthanized in accordance with the IACUC protocol once the largest tumors reached 2 cm in diameter, and tissues were collected for further analysis.

The test system of the next test is B16F10 melanoma. Briefly: B16F10 melanoma syngeneic tumor model. The test is classed as in vivo, mouse. To be noted: B16F10 in WT mice, 1.8 mg/kg NR-V04 or 0.75 mg/kg celastrol i.p. twice a week from day 7.
Description: as §1, §2

In test [2] the target is NR4A1. The note with it: ref Hu et al., 2017; read-out: binding affinity of celastrol to NR4A1 (Kd); cited from earlier work.
Another test concerns the target NR4A1 and VHL (Homo sapiens, UniProt P22736+P40337). Put plainly: Proximity ligation assay (PLA) for the NR4A1-VHL ternary complex. The test is classed as cell-based. On the set-up: endogenous in cells; host or cells: CHL-1 and A375 human melanoma cells. To be noted: CHL-1 and A375 cells, 500 nM, 16 h, 0.5 μM MG132 pretreatment. How it is done: 5 × 10^4 CHL-1 and A375 cells were cultured in Nunc Lab-Tek Chamber Slide (177402; Thermo Fisher Scientific). The cells were treated with DMSO, 500 nM celastrol, and 500 nM NR-V04 for 16 h with MG132 inhibitor. The PLA was conducted with Duolink In Situ Red Starter Kit Mouse/Rabbit (DUO92101; Sigma-Aldrich) following the standard protocol. Additionally, a non-stain cell group was included as a negative control to account for background signal during PLA assay. The signal was detected using a confocal microscope (LSM 710; Zeiss). Primary antibody: NR4A1 (HPA059742, 2 μg/ml, isotype-rabbit; Sigma-Aldrich) and VHL (MA5-13940, 2 μg/ml, isotype-mouse; Thermo Fisher Scientific).

Structures are written as SMILES.

T1 sequence (P22736 whole entry): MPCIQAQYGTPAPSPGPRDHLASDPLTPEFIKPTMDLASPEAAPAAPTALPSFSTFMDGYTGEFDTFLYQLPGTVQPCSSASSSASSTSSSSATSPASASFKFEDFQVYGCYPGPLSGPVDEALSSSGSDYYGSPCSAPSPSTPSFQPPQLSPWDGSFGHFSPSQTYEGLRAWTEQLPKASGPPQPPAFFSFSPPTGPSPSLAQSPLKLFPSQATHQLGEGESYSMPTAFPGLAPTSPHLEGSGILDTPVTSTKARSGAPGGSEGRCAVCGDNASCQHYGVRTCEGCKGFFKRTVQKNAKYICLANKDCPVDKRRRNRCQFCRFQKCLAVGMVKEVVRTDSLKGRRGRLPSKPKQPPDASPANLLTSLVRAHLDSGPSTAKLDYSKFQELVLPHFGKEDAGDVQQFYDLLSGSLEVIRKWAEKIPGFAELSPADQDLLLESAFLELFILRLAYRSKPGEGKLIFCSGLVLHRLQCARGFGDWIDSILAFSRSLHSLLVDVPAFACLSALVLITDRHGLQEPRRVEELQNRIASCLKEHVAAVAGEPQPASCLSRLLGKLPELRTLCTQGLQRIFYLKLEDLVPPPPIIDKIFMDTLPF
Chain of NR4A1 and VHL (P22736 whole entry): as above
Chain of NR4A1 and VHL (P40337 whole entry): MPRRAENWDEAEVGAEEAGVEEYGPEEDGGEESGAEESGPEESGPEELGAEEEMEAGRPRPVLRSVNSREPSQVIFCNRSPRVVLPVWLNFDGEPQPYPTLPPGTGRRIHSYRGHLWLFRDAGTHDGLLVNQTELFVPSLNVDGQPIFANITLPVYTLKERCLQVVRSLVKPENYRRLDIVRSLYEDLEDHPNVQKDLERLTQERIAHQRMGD
Chain of NR4A1 and VHL (Q15369 whole entry partner): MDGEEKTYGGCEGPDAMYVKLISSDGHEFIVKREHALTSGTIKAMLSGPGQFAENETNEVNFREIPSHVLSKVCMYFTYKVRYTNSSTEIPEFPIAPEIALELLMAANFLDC
Chain of NR4A1 and VHL (Q15370 whole entry partner): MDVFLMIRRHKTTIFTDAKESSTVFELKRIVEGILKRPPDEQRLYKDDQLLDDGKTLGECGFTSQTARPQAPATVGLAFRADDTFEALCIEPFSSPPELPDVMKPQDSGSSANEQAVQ

Take `CC1=C(O)C(=O)C=C2C1=CC=C1[C@@]2(C)CC[C@@]2(C)[C@@H]3C[C@](C)(C(=O)O)CC[C@]3(C)CC[C@]12C` [celastrol, reference compound]: on NR4A1 [1] (250 nM, immunoblotting and densitometry), the “NR4A1 protein level, initial screening” value was “did not alter the protein level of NR4A1”. Further, the “NR4A1 protein level, dose response” value on NR4A1 [1] is on record as “did not change NR4A1 protein level”. Further, the “NR4A1 mRNA level” value with NR4A1 mRNA is “increase in NR4A1 mRNA levels after 2 h”. The tumor growth entry in the test with MC38 tumors is “failure to inhibit tumor growth of MC38 tumors”; in the test with B16F10 melanoma, “increased growth of B16F10 tumors”. For the same compound, the Kd (in general, the equilibrium constant for the complex coming apart) on NR4A1 [2] was 290 nM. Moreover, the “PLA signals (ternary complex formation NR4A1-VHL)” value on NR4A1 and VHL is “did not”.

Values taken from paper PMC10857906, “PROTAC-mediated NR4A1 degradation as a novel strategy for cancer immunotherapy” (The Journal of Experimental Medicine, 2024).
